# From ChEMBL document CHEMBL4814036, “Synthesis and anti-fibrotic effects of santamarin derivatives as cytotoxic agents against hepatic stellate cell line LX2” (Bioorg Med Chem Lett, 2021)
# Activity calls are given as the source filed them. No cut-off for these calls is given here.
# Experiments:
# [1] = Cytotoxicity against human LX2 cells assessed as reduction in cell viability by MTT assay; format: functional, cell-based; settings: LX-2
# [2] = Potency index, ratio of STM IC50 to test compound IC50 for inhibition of hyaluronic acid deposition in human LX2 cells; format: functional, LX-2
# [3] = Potency index, ratio of STM IC50 to test compound IC50 for cytotoxicity against human LX2 cells; format: functional, LX-2
# [4] = Inhibition of collagen type 1 deposition in human LX2 cells; format: functional, cell-based; settings: lx-2
# [5] = Inhibition of laminin deposition in human LX2 cells; format: functional, cell-based; settings: lx-2
# [6] = Inhibition of hyaluronic acid deposition in human LX2 cells; format: functional, cell-based; settings: lx-2
# [7] = Potency index, ratio of STM IC50 to test compound IC50 for inhibition of laminin deposition in human LX2 cells; format: functional, LX-2
# LX-2 = experiment: Cytotoxicity against human LX2 cells assessed as reduction in cell viability at 100 uM by MTT assay; format: functional, cell-based
# [8] = Inhibition of collagen type 1 deposition in human LX2 cells incubated for 72 hrs by ELISA; format: functional, cell-based; settings: lx-2
# L1210 = experiment: Growth inhibition of mouse L1210 cells incubated for 24 to 48 hrs by trypan blue exclusion assay; format: functional, cell-based
# [9] = Inhibition of hyaluronic acid deposition in human LX2 cells incubated for 72 hrs by ELISA; format: functional, cell-based; settings: lx-2
# CCRF-CEM = experiment: Growth inhibition of human CCRF-CEM cells incubated for 24 to 48 hrs by trypan blue exclusion assay; format: functional, cell-based
# LS174T = experiment: Growth inhibition of human LS174T cells incubated for 72 hrs by methylene blue staining based assay; format: functional, cell-based
# MCF7 = experiment: Growth inhibition of human MCF7 cells incubated for 72 hrs by methylene blue staining based assay; format: functional, cell-based; settings: MCF7, 72 h
# [10] = Cytotoxicity against human LX2 cells assessed as reduction in cell viability incubated for 48 hrs by MTT assay; format: functional, cell-based; settings: LX-2, 48 h
# KB = experiment: Growth inhibition of human KB cells incubated for 72 hrs by methylene blue staining based assay; format: functional, cell-based
# [11] = Inhibition of laminin deposition in human LX2 cells incubated for 72 hrs by ELISA; format: functional, cell-based; settings: lx-2
compound,measurement,setting,value
C=C1C(=O)O[C@@H]2[C@H]3C(C)=CC[C@@H](OC(C)=O)[C@]3(C)CC[C@@H]12,IC50,[1],12.3 µM
C=C1C(=O)O[C@@H]2[C@H]3C(C)=CC[C@@H](OC(=O)/C=C/c4cccc(C(F)(F)F)c4)[C@]3(C)CC[C@@H]12,Ratio IC50,[2],3
same,IC50,[1],6.4 µM
same,Ratio IC50,[3],3
same,IC50,[4],14.7 µM
same,IC50,[5],7.3 µM
same,IC50,[6],21.2 µM
same,Ratio IC50,[7],3
C=C1C(=O)O[C@@H]2[C@H]3C(C)=CC[C@@H](OC(=O)/C=C/c4ccc(C(F)(F)F)cc4)[C@]3(C)CC[C@@H]12,IC50,[1],16.3 µM
C=C1C(=O)O[C@@H]2[C@H]3C(C)=CC[C@@H](OC(=O)/C=C/c4ccccc4)[C@]3(C)CC[C@@H]12,IC50,[1],17.6 µM
C=C1C(=O)O[C@@H]2[C@H]3C(C)=CC[C@@H](OC(=O)CCC(=O)O)[C@]3(C)CC[C@@H]12,IC50,[1],92 µM
C=C1C(=O)O[C@@H]2[C@@H]3[C@@](C)(CC[C@@H]12)[C@H](O)C[C@H]1O[C@@]31C,IC50,[1],47.4 µM
C=C1C(=O)O[C@@H]2[C@H]3C(C)=CC[C@@H](OC(=O)c4ccc(C(=O)O[C@@H]5CC=C(C)[C@@H]6[C@H]7OC(=O)C(=C)[C@@H]7CC[C@]65C)cc4)[C@]3(C)CC[C@@H]12,IC50,[1],9 µM
C=C1C(=O)O[C@@H]2[C@H]3C(C)=CC[C@@H](OC(=O)CCC(=O)Oc4ccc(-n5cc(C)ccc5=O)cc4)[C@]3(C)CC[C@@H]12,IC50,[1],55.9 µM
C=C1C(=O)O[C@@H]2[C@H]3C(C)=CC[C@@H](OC(=O)CCCC(=O)O[C@@H]4CC=C(C)[C@@H]5[C@H]6OC(=O)C(=C)[C@@H]6CC[C@]54C)[C@]3(C)CC[C@@H]12,IC50,[1],11.1 µM
C=C1C(=O)O[C@@H]2[C@H]3C(C)=CC[C@@H](OC(=O)/C=C/c4c(F)c(F)c(F)c(F)c4F)[C@]3(C)CC[C@@H]12,Ratio IC50,[2],8
same,IC50,[1],4.6 µM
same,Ratio IC50,[3],4
same,IC50,[4],6.1 µM
same,IC50,[5],3.3 µM
same,IC50,[6],7.6 µM
same,Ratio IC50,[7],6
C=C1C(=O)O[C@@H]2[C@H]3C(C)=CC[C@@H](OC(=O)/C=C/c4ccc(F)cc4)[C@]3(C)CC[C@@H]12,IC50,[1],21 µM
C=C1C(=O)O[C@@H]2[C@H]3C(C)=CC[C@@H](OC(=O)c4ccccc4)[C@]3(C)CC[C@@H]12,IC50,[1],16.9 µM
C=C1C(=O)O[C@@H]2[C@H]3C(C)=CC[C@@H](OC(=O)/C=C/c4ccccc4C(F)(F)F)[C@]3(C)CC[C@@H]12,IC50,[1],16.5 µM
C=C1C(=O)O[C@@H]2[C@H]3C(C)=CC[C@@H](OC(=O)c4cccs4)[C@]3(C)CC[C@@H]12,IC50,[1],31.3 µM
CC1=CC[C@@H](O)[C@]2(C)CC[C@@H]3[C@H](OC(=O)[C@H]3CN(C)C)[C@@H]12,Activity,LX-2,inactive
C=C1C(=O)O[C@@H]2[C@H]3C(C)=CC[C@@H](OC(=O)c4cccnc4)[C@]3(C)CC[C@@H]12,IC50,[1],27.6 µM
C=C1C(=O)O[C@@H]2[C@H]3C(C)=CC[C@@H](O)[C@]3(C)CC[C@@H]12 [SANTAMARIN],IC50,[8],7.3 µM
same,IC50,L1210,0.16 µg/mL
same,IC50,[9],> 60 µM
same,IC50,CCRF-CEM,0.16 µg/mL
same,IC50,LS174T,0.16 µg/mL
same,IC50,MCF7,0.16 µg/mL
same,IC50,[10],16.5 µM
same,IC50,KB,0.16 µg/mL
same,IC50,[11],18.6 µM
C=C1C(=O)O[C@@H]2[C@H]3C(C)=CC[C@@H](OC(=O)/C=C/c4ccc(C=O)cc4)[C@]3(C)CC[C@@H]12,IC50,[1],45.5 µM
C=C1[C@H](O)C[C@@H](O)[C@]2(C)CC[C@H]3C(=C)C(=O)O[C@@H]3[C@@H]12,IC50,[1],43.3 µM
C=C1C(=O)O[C@@H]2[C@H]3C(C)=CC[C@@H](OC(=O)/C=C/c4ccc(OC(C)=O)cc4)[C@]3(C)CC[C@@H]12,IC50,[1],21.5 µM
COc1cc([C@H]2Oc3cc([C@H]4Oc5cc(O)cc(O)c5C(=O)[C@@H]4O)ccc3O[C@@H]2CO)ccc1O [SILYBIN A],IC50,[1],151 µM
same,IC50,[4],51.5 µM
same,IC50,[5],83.7 µM
same,IC50,[6],164 µM
C=C1C(=O)O[C@@H]2[C@H]3C(C)=CC[C@@H](OC(=O)C4CCCC4)[C@]3(C)CC[C@@H]12,IC50,[1],11.9 µM
C=C1C(=O)O[C@@H]2[C@H]3C(C)=CC[C@@H](OC(=O)c4ccc(-n5cc(C)ccc5=O)cc4)[C@]3(C)CC[C@@H]12,IC50,[1],55.9 µM
C=C1C(=O)O[C@@H]2[C@H]3C(C)=CC[C@@H](OC(=O)/C=C/c4ccncc4)[C@]3(C)CC[C@@H]12,IC50,[1],16.1 µM
C=C1C(=O)O[C@@H]2[C@H]3C(C)=CC[C@@H](OC(=O)CCC(=O)O[C@@H]4CC=C(C)[C@@H]5[C@H]6OC(=O)C(=C)[C@@H]6CC[C@]54C)[C@]3(C)CC[C@@H]12,Ratio IC50,[2],3
same,IC50,[1],3.5 µM
same,Ratio IC50,[3],5
same,IC50,[4],16.2 µM
same,IC50,[5],6.6 µM
same,IC50,[6],17.9 µM
same,Ratio IC50,[7],3
C=C1C(=O)O[C@@H]2[C@H]3C(C)=CC[C@@H](OC(=O)c4cccc(C(F)(F)F)c4)[C@]3(C)CC[C@@H]12,IC50,[1],11.5 µM
C=C1C(=O)O[C@@H]2[C@H]3C(C)=CCC(=O)[C@]3(C)CC[C@@H]12,IC50,[1],44.4 µM
C=C1C(=O)O[C@@H]2[C@H]3C(C)=CC[C@@H](OC(=O)CCCCCCC)[C@]3(C)CC[C@@H]12,IC50,[1],32.4 µM
